Measured values: a compilation of properties of binary mixtures (doi:10.1021/acs.jced.1c00111)

Test: xn = mol fraction of the nth substance listed
Conditions: 100 kPa

CC[NH+](C)CC.CS(=O)(=O)[O-] + O
viscosity [mPa·s]
Conditions | 298.15 K | 303.15 K | 308.15 K | 313.15 K | 318.15 K | 323.15 K | 328.15 K | 333.15 K | 338.15 K
x1 = 0.0155 | 1.28 | 1.15 | – | 0.957 | 0.876 | 0.806 | 0.751 | 0.693 | 0.643
x1 = 0.0356 | 2.02 | 1.84 | 1.64 | 1.47 | 1.34 | 1.22 | 1.13 | 1.04 | 0.953
x1 = 0.0571 | 2.57 | 2.27 | 2 | – | 1.61 | 1.45 | 1.31 | 1.2 | –
x1 = 0.0757 | 3.43 | 2.99 | 2.64 | 2.34 | 2.09 | 1.87 | 1.68 | 1.53 | 1.39
x1 = 0.0967 | – | – | 3.45 | 3.05 | 2.7 | 2.42 | 2.17 | – | 1.79
x1 = 0.1234 | 5.96 | 5.09 | 4.39 | 3.82 | 3.35 | 2.97 | 2.64 | 2.36 | 2.12
x1 = 0.1582 | 8.21 | 6.94 | 5.93 | 5.13 | – | 3.92 | – | 3.08 | 2.75
x1 = 0.206 | 11.6 | 9.76 | 8.3 | 7.11 | 6.12 | 5.3 | – | 4.03 | 3.55
x1 = 0.3246 | 20 | – | 13.9 | – | 10.1 | 8.94 | 7.81 | – | –
x1 = 0.4263 | – | 25.9 | 22 | – | 15.6 | 13.2 | 11.5 | 9.9 | –
x1 = 0.5018 | 42.1 | 34 | – | 22.8 | 19.4 | 16.5 | – | – | –
x1 = 0.5783 | 52.8 | 42.1 | – | 28.3 | 23.6 | 20 | 17 | 14.5 | –
x1 = 0.6771 | – | – | 44.2 | 36 | 29.8 | 24.8 | 21.1 | 18.1 | –
x1 = 0.7782 | 90.5 | 70.3 | – | 44.9 | 36.5 | 30 | – | 22.2 | 18.7
